{
  "source": "patent US20200003756A1",
  "about": "“METHOD FOR OBSERVING SEBACEOUS GLAND” (MANDOM CORPORATION, priority 2017, published 2020)",
  "system": "sebaceous-gland-structure A",
  "experiment": "Classification of the state of lipid droplets in cells of the outermost layer of the sebaceous gland after suspension culture (Example 1)",
  "assay_type": "cell-based",
  "set-up": "key to State of lipid droplet in cell contained in outermost layer of sebaceous gland FIG. 6(A) / State of lipid droplet in cell contained in outermost layer of sebaceous gland FIG. 6(B) / State of lipid droplet in cell contained in outermost layer of sebaceous gland FIG. 6(C) / State of lipid droplet in cell contained in outermost layer of sebaceous gland FIG. 6(D) / State of lipid droplet in cell contained in outermost layer of sebaceous gland FIG. 6(E) / State of lipid droplet in cell contained in outermost layer of sebaceous gland FIG. 6(F) / State of lipid droplet in cell contained in outermost layer of sebaceous gland FIG. 6(G): “◯ (open circle)” shows that a given state shown in FIG. 6 was observed; —: “-” shows that the given state shown in FIG. 6 was not observed",
  "conditions": "for State of lipid droplet in cell contained in outermost layer of sebaceous gland FIG. 6(A): (A) No lipid droplet is found in the cell; for State of lipid droplet in cell contained in outermost layer of sebaceous gland FIG. 6(B): (B) A few lipid droplets are found in the cell; for State of lipid droplet in cell contained in outermost layer of sebaceous gland FIG. 6(C): (C) There is a space of lipid droplets in the cell; for State of lipid droplet in cell contained in outermost layer of sebaceous gland FIG. 6(D): (D) Lipid droplets start erosion of the nucleus; for State of lipid droplet in cell contained in outermost layer of sebaceous gland FIG. 6(E): (E) Lipid droplets start being connected to each other; for State of lipid droplet in cell contained in outermost layer of sebaceous gland FIG. 6(F): (F) The cell is fully occupied by lipid droplets; for State of lipid droplet in cell contained in outermost layer of sebaceous gland FIG. 6(G): (G) The cell is disappeared",
  "source_text": "Under a stereoscopic microscope, a subcutaneous tissue was removed from a skin tissue by using scissors. Next, collagenous fibers were removed from the dermis in the skin tissue by using scissors and tweezers after removing the subcutaneous tissue, to obtain a sebaceous-gland-structure in which a sebaceous gland was exposed (hereinafter referred to as “sebaceous-gland-structure A”). […] In the sebaceous-gland-structure A, a sebaceous gland was exposed.\nThe sebaceous-gland-structure A obtained in Preparation Example 6 was immersed in a 4% by mass PFA-containing PBS solution at 4° C. for 30 minutes to fix the sebaceous-gland-structure A, thereby giving a fixed sample. The resulting fixed sample was washed by incubating the sample in a 2% by mass BSA-containing PBSTT solution at 4° C. for 1 hour. Washing was carried out three times.\nThe fixed sample after the washing was incubated in the primary antibody-containing solution obtained in Preparation Example 2 at 4° C. for 24 hours. The fixed sample after the incubation was washed by incubating the fixed sample in a […] by mass BSA-containing PBSTT solution at 4° C. for 1 hour. Washing was carried out three times.\nThe fixed sample after the washing was incubated in the staining reagent A obtained in Preparation Example 3 at 4° C. for 12 hours, to stain the sebaceous gland basal cell and the nucleus present in the outermost layer of the sebaceous gland. The stained fixed sample was washed by incubating the sample in a 2% by mass BSA-containing PBSTT solution at 4° C. for 1 hour. Washing was carried out three times.\nThe fixed sample after the washing was incubated in the staining reagent B obtained in Preparation Example 4 at room temperature (25° C.) for 30 minutes, to stain the sebum contained in the sebaceous-gland-structure A. The stained fixed sample was washed by incubating the sample in a 2% by mass BSA-containing PBSTT solution at 4° C. for 1 hour. Washing was carried out three times.\nThe fixed sample after the washing was subjected to incubation in a 20% by mass glycerol-containing PBS solution at 4° C. for 1 hour, incubation in a 50% by mass glycerol-containing PBS solution at 4° C. for 1 hour, and incubation in a 80% by mass glycerol-containing PBS solution at 4° C. for 1 hour, to substitute the moisture contained in the fixed sample with glycerol.\nAn appropriate amount (for example, 50 μL) of an 80 by mass aqueous glycerol solution was added to a region surrounded by the spaced contained in the spacer-attached coverslip obtained in Preparation Example 5. Next, the glycerol-substituted sebaceous-gland-structure A was placed on the region surrounded by the spacer contained in the spacer-attached coverslip so that the side of the sebaceous gland was directed downwards. Thereafter, the region surrounded by the spacer contained in the spacer-attached coverslip was covered with a round-shaped coverslip (diameter: 12 mm), to obtain an observation sample.\nLinoleic acid was added to the mixed medium obtained in Preparation Example 1 (hereinafter also referred to as “test sample A”) so that the concentration of linoleic acid was 1×10^−4 M, to obtain a test sample B. In addition, linoleic acid was added to the mixed medium obtained in Preparation Example 1 so that the concentration of linoleic acid was 1×10^−3 M, to obtain a test sample C.\nOne milliliter of the test sample A was added to each well of a 24-well plate. Next, the sebaceous-gland-structure A obtained in Preparation Example 6 was cultured in a suspended state in the test sample A contained in each well of the 24-well plate in the presence of 5% by volume carbon dioxide at 37° C. for 24 hours, to contact the sebaceous-gland-structure A with the test sample A (Experiment number 1). In addition, the sebaceous-gland-structure A was contacted with the test sample A in the same manner as in Experiment number 1 except that in Experiment number 1, 48-hour culture was carried out in place of 24-hour culture (Experiment number 2). […]",
  "key": {"[1]": {"conditions": "linoleic acid 1 × 10^−3 M, culture 24 h (Experiment 5)"}, "[2]": {"conditions": "linoleic acid 1 × 10^−3 M, culture 48 h (Experiment 6)"}, "[3]": {"conditions": "linoleic acid 1 × 10^−4 M, culture 24 h (Experiment 3)"}, "[4]": {"conditions": "linoleic acid 1 × 10^−4 M, culture 48 h (Experiment 4)"}},
  "data": [
    {"smiles": "CCCCC/C=C\\C/C=C\\CCCCCCCC(=O)O", "note": "[linoleic acid, Linoleic acid]", "values": [
      {"measurement": "State of lipid droplet in cell contained in outermost layer of sebaceous gland FIG. 6(A)", "setting": "[1]", "value": "◯"},
      {"measurement": "State of lipid droplet in cell contained in outermost layer of sebaceous gland FIG. 6(B)", "setting": "[1]", "value": "◯"},
      {"measurement": "State of lipid droplet in cell contained in outermost layer of sebaceous gland FIG. 6(C)", "setting": "[1]", "value": "◯"},
      {"measurement": "State of lipid droplet in cell contained in outermost layer of sebaceous gland FIG. 6(D)", "setting": "[1]", "value": "◯"},
      {"measurement": "State of lipid droplet in cell contained in outermost layer of sebaceous gland FIG. 6(E)", "setting": "[1]", "value": "◯"},
      {"measurement": "State of lipid droplet in cell contained in outermost layer of sebaceous gland FIG. 6(F)", "setting": "[1]", "value": "—"},
      {"measurement": "State of lipid droplet in cell contained in outermost layer of sebaceous gland FIG. 6(G)", "setting": "[1]", "value": "◯"},
      {"measurement": "State of lipid droplet in cell contained in outermost layer of sebaceous gland FIG. 6(A)", "setting": "[2]", "value": "◯"},
      {"measurement": "State of lipid droplet in cell contained in outermost layer of sebaceous gland FIG. 6(B)", "setting": "[2]", "value": "◯"},
      {"measurement": "State of lipid droplet in cell contained in outermost layer of sebaceous gland FIG. 6(C)", "setting": "[2]", "value": "◯"},
      {"measurement": "State of lipid droplet in cell contained in outermost layer of sebaceous gland FIG. 6(D)", "setting": "[2]", "value": "◯"},
      {"measurement": "State of lipid droplet in cell contained in outermost layer of sebaceous gland FIG. 6(E)", "setting": "[2]", "value": "◯"},
      {"measurement": "State of lipid droplet in cell contained in outermost layer of sebaceous gland FIG. 6(F)", "setting": "[2]", "value": "◯"},
      {"measurement": "State of lipid droplet in cell contained in outermost layer of sebaceous gland FIG. 6(G)", "setting": "[2]", "value": "◯"},
      {"measurement": "number of cells progressing sebum production (tendency from Table 2)", "setting": "linoleic acid 1×10^−4 M and 1×10^−3 M, culture 24 h and 48 h", "value": "the higher the linoleic acid concentration in the test sample is and the longer the culture time is, the larger the number of cells progressing sebum production is"},
      {"measurement": "State of lipid droplet in cell contained in outermost layer of sebaceous gland FIG. 6(A)", "setting": "[3]", "value": "◯"},
      {"measurement": "State of lipid droplet in cell contained in outermost layer of sebaceous gland FIG. 6(B)", "setting": "[3]", "value": "◯"},
      {"measurement": "State of lipid droplet in cell contained in outermost layer of sebaceous gland FIG. 6(C)", "setting": "[3]", "value": "—"},
      {"measurement": "State of lipid droplet in cell contained in outermost layer of sebaceous gland FIG. 6(D)", "setting": "[3]", "value": "—"},
      {"measurement": "State of lipid droplet in cell contained in outermost layer of sebaceous gland FIG. 6(E)", "setting": "[3]", "value": "—"},
      {"measurement": "State of lipid droplet in cell contained in outermost layer of sebaceous gland FIG. 6(F)", "setting": "[3]", "value": "—"},
      {"measurement": "State of lipid droplet in cell contained in outermost layer of sebaceous gland FIG. 6(G)", "setting": "[3]", "value": "—"},
      {"measurement": "State of lipid droplet in cell contained in outermost layer of sebaceous gland FIG. 6(A)", "setting": "[4]", "value": "◯"},
      {"measurement": "State of lipid droplet in cell contained in outermost layer of sebaceous gland FIG. 6(B)", "setting": "[4]", "value": "◯"},
      {"measurement": "State of lipid droplet in cell contained in outermost layer of sebaceous gland FIG. 6(C)", "setting": "[4]", "value": "◯"},
      {"measurement": "State of lipid droplet in cell contained in outermost layer of sebaceous gland FIG. 6(D)", "setting": "[4]", "value": "—"},
      {"measurement": "State of lipid droplet in cell contained in outermost layer of sebaceous gland FIG. 6(E)", "setting": "[4]", "value": "—"},
      {"measurement": "State of lipid droplet in cell contained in outermost layer of sebaceous gland FIG. 6(F)", "setting": "[4]", "value": "—"},
      {"measurement": "State of lipid droplet in cell contained in outermost layer of sebaceous gland FIG. 6(G)", "setting": "[4]", "value": "—"}
    ]}
  ]
}
